Among the data in patent publication US11453660B2, “Androgen receptor and glucocorticoid receptor modulators” (ONCOSTELLAE, S.L., priority 2017, dated 2022) are IC50 values, retold here.

SMILES strings stand for the structures.

The experiment addresses T1, Rat Androgen Receptor (Rattus norvegicus, UniProt P15207).
T1 construct: purchased Life Technologies A15880
T1 sequence (P15207 646-902 limits assumed): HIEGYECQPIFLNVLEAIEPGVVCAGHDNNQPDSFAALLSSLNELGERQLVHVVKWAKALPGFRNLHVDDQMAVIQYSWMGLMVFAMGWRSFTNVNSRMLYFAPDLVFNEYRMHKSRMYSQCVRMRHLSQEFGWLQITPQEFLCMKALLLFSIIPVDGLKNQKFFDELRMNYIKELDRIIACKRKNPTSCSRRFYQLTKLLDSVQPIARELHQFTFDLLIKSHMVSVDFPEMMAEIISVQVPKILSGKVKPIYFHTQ
Briefly: Rat Androgen Receptor Binding (polarscreen AR competitor assay, fluorescence polarization). The settings on record: displacement of Fluormone AL Green, 4 hours at RT, read-out: AR rat-fluorimetric. In a few lines:
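Fluorescence-polarization competition of Fluormone AL Green binding to rat androgen receptor; compounds screened in duplicate at 1 and 10 μM, 4 h at RT, read at λexc 485/λem 535 nm. IC50 from 1:10 dilution series, 10 μM to 0.1 nM, in 1× buffer.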
For orientation: In fluorescence polarisation assays a small probe gives low polarisation when free and higher when bound to something large.
Regarding `CC(=O)C1=C(C)NC(C)=C(C(=O)OCc2ccccc2)C1c1csc2ccccc12` (stereo not shown) [Example B6, Benzyl 5-acetyl-4-(benzo[b]thiophen-3-yl)-2,6-dimethyl-1,4-dihydro-pyridine-3-carboxylate], the IC50 is 100 to 1000 nM.

Take `CC(=O)C1=C(C)NC(C)=C(C(=O)OCC2CCOCC2)C1c1csc2ccccc12` (stereo not shown) [Example C2, (Tetrahydro-2H-pyran-4-yl)methyl 5-acetyl-4-(benzo[b]thiophen-3-yl)-2,6-dimethyl-1,4-dihydropyridine-3-carboxylate]: the IC50 was in the range of 100 to 1000 nM.

In the case of `CC(=O)C1=C(C)NC(C)=C(C(=O)OCC2CC2)C1c1csc2ncccc12` (stereo not shown) [Example C24, Cyclopropylmethyl 5-acetyl-2,6-dimethyl-4-(thieno[2,3-b]pyridin-3-yl)-1,4-dihydropyridine-3-carboxylate], the IC50 is < 100 nM.

As for `COC(=O)C1=C(C2CC2)NC(C)=C(C(C)=O)C1c1csc2ncccc12` (stereo not shown) [Example J23, Methyl 5-acetyl-2-cyclopropyl-6-methyl-4-(thieno[2,3-b]pyridin-3-yl)-1,4-dihydropyridine-3-carboxylate], the IC50 was < 100 nM.
